# pIC50: −log10 of the molar value.
# Key:
# [1] = test system: 5-FU-induced mucositis; assay: In vivo anti-mucositis activity (5-FU, buccal pouch wound); set-up: species or system Syrian golden hamsters; conditions: hamster, subcutaneous once a day Day 0 to Day 5; Compound 1 36, 72, 144 mg/kg; Compound 3 0.5, 5.0, 50.0 mg/kg; dose-dependent
# Description: Twenty young Syrian golden hamsters, 7 to 8 weeks old weighing 90 to 130 g, were numbered and randomly divided into five groups (4 hamsters each group).
# Each hamster in the five groups was punched at the right buccal pouch mucosa with a skin puncher on Day 0 to give a 6 mm diameter wound. Four groups were intraperitoneally administered with 5-FU at 20 mg/kg twice at Day 0 and one group was used as a control without any treatment. […] Wounds were examined macroscopically and microscopically 0.5, 1, 2, 3, 4, 5, and 6 days after the punching. The hematological parameters, serum biochemistry, extents of inflammatory cell infiltration, sizes of hemorrhagic areas, and presence of ulcers and abscesses were recorded. After Day 6, all of the hamsters were anesthetized with isoflurane (2-chloro-2-difluoromethoxy-1,1,1-trifluoro-ethane) for macroscopic and histological analysis and Western blot analysis.
# [2] = test system: IMR90 cells; assay: In vitro wound healing activity (scrape wound, cell migration); format: cell-based; conditions: 24 hours, Compound 1 0.1, 0.5, 1 mM, Compound 3 0.05, 0.5, 1 μM
# Description: The wound healing activities of Compounds 1 and 3 were in vitro assessed by the method provided in Valster et al., Methods, 2005, 37, 208-215 and Rodriguez et al., “Methods in Molecular Biology” in Cell Migration: Developmental Methods and Protocols, vol. 294, Ed by Guan et al. Humana. Press Inc.
# IMR90 cells were seeded on a six-well culture dish and grown in MEM medium with 10% FBS to confluence in the presence of serum. The growth medium (MEM with 10% FBS) was then replaced with a serum-free medium (MEM without FBS). After starved for 24 hours, wounds were made by scraping using a P1000 pipette tip. […] The wounds were observed by a phase contrast microscopy using an inverted microscope. Images were taken at areas flanking the intersections of the wounds and the marker lines at regular intervals over a period of 24 hours. These images were analyzed through a digital imaging system using Image-Pro Plus® (Media Cybernetics, Silver Spring, Md.) to determine the position of the migrating cells at the wound edges. The cell migration distance was calculated by substracting the width of the wound at each interval from its initial width.
# [3] = biological target: histone deacetylase (HDAC); assay: HDAC inhibition assay (Fluor de Lys fluorescent assay, HeLa lysate); format: biochemical; conditions: mantissa in r5, exponent and unit in r6
# Description: The histone deacetylase (HDAC) activity was measured in HeLa lysate suspensions using a Fluor de Lys™ fluorescent assay system (Biomol, Enzo Life Sciences; PA, USA) with some modification as described previously (Pflum et al., 2007). In brief, HeLa lysate (1.5 μl) were preincubated in the presence of test compound or vehicle (DMSO, 0.2% v/v) at 30° C. for 10 minutes, therefore Fluor de Lys™ substrate (125 μM) was added and incubated at 37° C. under shaking for 45 minutes. Finally, the developer reagent (95 μl, 1×) was immediately added to the same aliquot of the reaction mixture for another 10 minutes. The extent of deacetylated substrate formation was monitored by a microplate fluorescence reader (Thermo Varioskan Flash, Thermofisher; MA, USA) to determine the fluorescence intensity (excitation at 360 nm, emission at 460 nm). The results were expressed as the percent inhibition of the rate of deacetylated substrate formation on the reacting interval. […] See Bieliauskas et al., Bioorg. Med. Chem. Lett., 2007, 17: 2216-2219.
# [4] = test system: COX-2; assay: In vitro COX-2 protein expression (Western blot); format: cell-based; conditions: IMR90 cells; 0.05-1.0 μM; dose-dependent
# Description: To detect COX-2 protein expression, Western blot analysis was performed as follows. Briefly, Compound 3-treated IMR90 cells, stimulated by wounds (scraping using a P1000 pipette tip) and non-stimulated, were collected and lysed in 1× lysis buffer. Protein concentrations of these lysed cells were measured using Bio-Rad quantification assay (Bio-Rad Laboratory, CA). Protein extracts (20 μg) were subjected to electrophoresis on a 10% SDS-PAGE and transferred to PVDF membrane. The antibody recognizing COX-2 was obtained from Epitomics (Burlingame, Calif.). The antibody recognizing β-actin was from obtained Sigma (St. Louis, Mo.). All antibodies were rabbit polyclonal antibodies except for the β-actin antibody, which was a mouse monoclonal antibody. Secondary antibodies were anti-rabbit IgG and anti-mouse IgG (horseradish-peroxidase linked antibodies), respectively (Amersham Biosciences, Piscataway, N.J.). Primary antibodies were used at a 1:1,000 dilution and secondary antibodies were used at a 1:5,000 dilution in a solution containing 5% BSA in TBS-T. Immunoreactive proteins were detected using the enhanced chemiluminescence light (ECL) detecting kit (Millipore).
Compound,melting point,pIC50 [3],5-FU-induced mucositis in wound areas [1],wound healing [2],COX-2 protein expression [4]
"O=C(CCCc1ccccc1)NO [Compound 1, N-hydroxy-4-phenylbutanamide]",,,reduced 5-FU-induced mucositis,promoted wound healing,
"CC(C)(C(=O)NO)C(O)Cc1ccccc1 (stereo not shown) [Compound 2, N,3-dihydroxy-2,2-dimethyl-4-phenylbutanamide]",95 to 96 °C,,,,
"CC(C)(C)OC(=O)N[C@H](Cc1ccc(OCc2ccccc2)cn1)C(=O)Nc1ccc(CCCC(=O)NO)cc1 [Compound 3, (R)-tert-butyl 3-(5-(benzyloxy)pyridin-2-yl)-1-(4-(4-(hydroxylamino)-4-oxobutyl)phenylamino)-1-oxopropan-2-ylcarbamate]",,6.40,reduced 5-FU-induced mucositis,promoted wound healing,inhibited COX-2 protein expression
"CC(C)(C)OC(=O)NC(Cc1ccc(O)cn1)C(=O)Nc1ccc(CCCC(=O)NO)cc1 (stereo not shown) [Compound 4, tert-butyl-1-(4-(4-(hydroxyamino)-4-oxobutyl)phenylamino)-3-(5-hydroxypyridin-2-yl)-1-oxopropan-2-ylcarbamate]",166 to 167 °C,5.38,,,
"NC(Cc1ccc(OCc2ccccc2)cn1)C(=O)Nc1ccc(CCCC(=O)NO)cc1 (stereo not shown) [Compound 5, 4-(4-(2-amino-3-(5-(benzyloxy)pyridin-2-yl)propanamido)phenyl)-N-hydroxybutanamide]",> 300 °C,,,,

# More lines, main results first:
melting point,pIC50 [3],Compound,5-FU-induced mucositis in wound areas [1],wound healing [2],COX-2 protein expression [4]
230 °C (dec.),,"NC(Cc1ccc(O)cn1)C(=O)Nc1ccc(CCCC(=O)NO)cc1 (stereo not shown) [Compound 6, 4-(4-(2-amino-3-(5-hydroxypyridin-2-yl)-propanamido)phenyl)-N-hydroxybutanamide]",,,
106 to 108 °C,5.88,"CC(C)(C)OC(=O)NC(Cc1ccc(OCc2ccccc2)cn1)C(=O)NCc1ccc(C(=O)NO)cc1 (stereo not shown) [Compound 7, tert-butyl 3-(5-(benzyloxy)pyridin-2-yl)-1-(4-(hydroxycarbamoyl)benzylamino)-1-oxopropan-2-ylcarbamate]",,,

# From patent publication US8242282B2, “Histone deacetylase inhibitors” (Taipei Medical University, priority 2010, dated 2012)
